Test results from patent publication US12655099B2, “Substituted phenyl sulfide compound and application thereof” (SHENYANG SINOCHEM AGROCHEMICALS R&D CO., LTD., priority 2020, dated 2026).

Columns and labels:
[1] = tested on: Egg of Spider Mite (Tetranychus Cinnabarinus); assay: Activity against egg of spider mite, POTTER spray tower, incubation inhibition; format: in vivo; details: spider mite eggs; for inhibition at 1.25 µg/mL: Tetranychus cinnabarinus, read-out: Inhibition Rate (%)
Experimental: According to the solubility of test compounds, the compounds were dissolved with acetone or dimethyl sulfoxide, and then diluted with 0.1% aqueous solution of Tween 80 to form 50 ml test liquid and the content of the acetone or the dimethyl sulfoxide in the total solution was not more than 10% for later use. The leaves of bean were chopped into leaf discs and put into a petri dish. Female adult mites were inoculated. After laying eggs, the female adult mites were removed. After the number of eggs were investigated, the solution of certain concentrations of test compounds were sprayed with a POTTER spray tower, for 2 mL per treatment, and blank control was set. When all eggs in the blank control were incubated, the number of eggs which were incubated and unincubated was recorded, and incubation inhibition rate of the eggs was calculated.

[2] = tested on: Panonychus ulmi; assay: Field trial for controlling Panonychus ulmi on apple trees; format: in vivo; details: spray, apple tree
Experimental: The trial was carried out in the orchard of Research Institute of Pomology of Chinese Academy of Agricultural Sciences. The test sample was Starkrimson apple tree, which was 14 years old and the intervals between two plants was 2×4 m. The test compound 14 was set at two different doses of 50 mg/L and 100 mg/L, and Spirodiclofen suspension agent as the positive control was set at one dose of 50 mg/L. The test method was spraying by using the stretcher power sprayer, each treatment repeated three times. The number of initial mites was investigated before spraying, and the number of surviving mites was checked and recorded. The number of surviving mites was investigated on the 3 days, 7 days, 14 days and 21 days after spraying respectively. The decline rate of mite population was counted and the control efficiency was calculated.
[formula] • The field trial results for compound 14 against Panonychus ulmi (Xingcheng, Liaoning, May, 2018) were shown in Table 4.Table 4

[3] = tested on: Panonychus citri; assay: Field trial against Panonychus citri on citrus trees; format: in vivo; details: spray, citrus tree
Experimental: The trial was carried out in the citrus orchard in Yibin City, Sichuan Province. The test sample was “Dekopon”. The test citrus trees were 4 years old and the planting density was more than 70 plants/mu. The test compounds 6 and 14 were set at two different doses of 50 mg/L and 100 mg/L.
As the positive controls, Spirodiclofen suspension agent was set at one dose of 100 mg/L, and Pyridaben wettable powder was set at one dose of 100 mg/L. The test method was spraying by using Pentium 3WBD-20 sprayer, each treatment repeated three times. The number of initial mites was investigated before spraying, and the number of surviving mites was checked and recorded. The number of surviving mites was investigated on the 3 days, 7 days, 14 days, 21 days and 30 days after spraying respectively. The decline rate of mite populationg was counted and the control efficiency was calculated.

[4] = tested on: Adult Spider Mite (Tetranychus cinnabarinus); assay: Activity against adult spider mite, spray on bean leaves, mortality after 72 h; format: in vivo; details: adult spider mites
Experimental: According to the solubility of test compounds, the compounds were dissolved with acetone or dimethyl sulfoxide, and then diluted with 0.1% aqueous solution of Tween 80 to form 50 ml test liquid and the content of the acetone or the dimethyl sulfoxide in the total solution was not more than 10% for later use. The adult spider mites were put into two true leaves of bean plants. After the number of mites were investigated, the solution of certain concentrations of test compounds was sprayed by using a handheld Airbrush. Three replicates were set for each treatment. Then the leaves were maintained in standard observation room. After 72 h, the number of surviving mites were observed, and the mortality rate was calculated.

[5] = tested on: two-spotted spider mites; details: concentration of 50 ppm; cited from earlier work
[6] = Tetranychus cinnabarinus, 1.25 mg/L

Cc1cc(F)c(-c2cccc(SCC(F)(F)F)c2)cc1SCC(F)(F)F [Compound 19]
Inhibition Rate (%) ([1]; 0.625 mg/L): 51.2%
Inhibition Rate (%) ([1]; 1.25 mg/L): 81.1%

CCC(C)(C)C(=O)OC1=C(c2ccc(Cl)cc2Cl)C(=O)OC12CCCCC2 [Spirodiclofen, reference compound]
Control efficiency (%) 3 days after pesticide application ([2]; 50 mg/L): 49.6%
Control efficiency (%) 7 days after pesticide application ([2]; 50 mg/L): 45.8%
Control efficiency (%) 14 days after pesticide application ([2]; 50 mg/L): 90.3%
Control efficiency (%) 21 days after pesticide application ([2]; 50 mg/L): 94.9%
Control efficiency (%) 3 days after pesticide application ([3]; 100 mg/L): 91.09%
Control efficiency (%) 7 days after pesticide application ([3]; 100 mg/L): 80.88%
Control efficiency (%) 14 days after pesticide application ([3]; 100 mg/L): 80.88%
Control efficiency (%) 21 days after pesticide application ([3]; 100 mg/L): 72.63%
Control efficiency (%) 30 days after pesticide application ([3]; 100 mg/L): 73.60%

Cc1cc(F)c(-c2ccc([N+](=O)[O-])cc2)cc1SCC(F)(F)F [KC5]
mortality at 0.625 µg/mL ([4]; Tetranychus cinnabarinus, 0.625 mg/L): 29.8%
mortality at 1.25 µg/mL [4, 6]: 71.7%

Cc1cc(F)c(-c2cccc([N+](=O)[O-])c2)cc1[S+]([O-])CC(F)(F)F (centres unmarked) [Compound 6]
Mortality (%) ([4]; 0.625 mg/L): 80.6%
Mortality (%) ([4]; 1.25 mg/L): 97.6%
Control efficiency (%) 3 days after pesticide application ([3]; 50 mg/L): 98.58%
Control efficiency (%) 7 days after pesticide application ([3]; 50 mg/L): 96.69%
Control efficiency (%) 14 days after pesticide application ([3]; 50 mg/L): 99.28%
Control efficiency (%) 21 days after pesticide application ([3]; 50 mg/L): 95.86%
Control efficiency (%) 30 days after pesticide application ([3]; 50 mg/L): 94.62%

Cc1cc(F)c(-c2cccc(SCc3ccccc3)c2)cc1SCC(F)(F)F [KC4]
inhibition at 1.25 µg/mL ([1]; 1.25 mg/L): 40.8%
lethal activity [5]: more than 90%
mortality at 1.25 µg/mL [4, 6]: 16.4%

Cc1cc(F)c(-c2ccc(C(F)(F)F)cc2)cc1SCC(F)(F)F [KC1, reference compound]
inhibition at 1.25 µg/mL ([1]; 1.25 mg/L): 26.2%
mortality at 1.25 µg/mL [4, 6]: 36.5%

CC(C)(C)c1ccc(CSc2cnn(C(C)(C)C)c(=O)c2Cl)cc1 [Pyridaben, reference compound]
Control efficiency (%) 3 days after pesticide application ([3]; 100 mg/L): 80.24%
Control efficiency (%) 7 days after pesticide application ([3]; 100 mg/L): 61.51%
Control efficiency (%) 14 days after pesticide application ([3]; 100 mg/L): 61.51%
Control efficiency (%) 21 days after pesticide application ([3]; 100 mg/L): 51.62%
Control efficiency (%) 30 days after pesticide application ([3]; 100 mg/L): 56.60%

O=[N+]([O-])c1cccc(-c2cc(SCC(F)(F)F)c(Cl)cc2F)c1 [Compound 8]
Mortality (%) ([4]; 0.625 mg/L): 65.2%
Mortality (%) ([4]; 1.25 mg/L): 90.7%

Cc1cc(F)c(-c2cccc(C(F)(F)F)c2)cc1SCC(F)(F)F [KC2, reference compound]
inhibition at 1.25 µg/mL ([1]; 1.25 mg/L): 36.7%
mortality at 1.25 µg/mL [4, 6]: 56.6%

Cc1cc(F)c(-c2ccccc2[N+](=O)[O-])cc1SCC(F)(F)F [KC6]
mortality at 1.25 µg/mL [4, 6]: 0%

Cc1cc(F)c(-c2cccc([N+](=O)[O-])c2)cc1SCC(F)(F)F [Compound 5]
Inhibition Rate (%) ([1]; 0.625 mg/L): 100%
Inhibition Rate (%) ([1]; 1.25 mg/L): 100%
Mortality (%) ([4]; 0.625 mg/L): 95.5%
Mortality (%) ([4]; 1.25 mg/L): 100%

CSc1cccc(-c2cc(SCC(F)(F)F)c(C)cc2F)c1 [Compound 14]
Inhibition Rate (%) ([1]; 0.625 mg/L): 65.3%
Inhibition Rate (%) ([1]; 1.25 mg/L): 95.8%
Control efficiency (%) 3 days after pesticide application ([2]; 50 mg/L): 92.2%
Control efficiency (%) 7 days after pesticide application ([2]; 50 mg/L): 86.4%
Control efficiency (%) 14 days after pesticide application ([2]; 50 mg/L): 97.3%
Control efficiency (%) 21 days after pesticide application ([2]; 50 mg/L): 93.2%
Control efficiency (%) 3 days after pesticide application ([2]; 100 mg/L): 94.4%
Control efficiency (%) 7 days after pesticide application ([2]; 100 mg/L): 96.6%
Control efficiency (%) 14 days after pesticide application ([2]; 100 mg/L): 99.8%
Control efficiency (%) 21 days after pesticide application ([2]; 100 mg/L): 99.1%
Control efficiency (%) 3 days after pesticide application ([3]; 50 mg/L): 99.61%
Control efficiency (%) 7 days after pesticide application ([3]; 50 mg/L): 98.90%
Control efficiency (%) 14 days after pesticide application ([3]; 50 mg/L): 99.08%
Control efficiency (%) 21 days after pesticide application ([3]; 50 mg/L): 98.57%
Control efficiency (%) 30 days after pesticide application ([3]; 50 mg/L): 97.35%

Cc1cc(F)c(-c2cccc(OC(F)(F)F)c2)cc1SCC(F)(F)F [KC3, reference compound]
inhibition at 1.25 µg/mL ([1]; 1.25 mg/L): 20.7%
mortality at 1.25 µg/mL [4, 6]: 50.7%
